Reference: US20250333418A1, “PURINE COMPOUNDS, COMPOSITIONS COMPRISING THEM AND USES THEREOF” (Novo Nordisk A/S, priority 2022, published 2025)

Experiments:
[1] = biological target: T1, human CB1 receptor (Homo sapiens, UniProt P21554); test: bioSensAll β-arrestin2 plasma membrane translocation (+GRK2) BRET biosensor assay in HEK293 cells transfected with hCB1; test compound added before EC75-80 of agonist CP55,940 (100 nM); format: cell-based; details: βArrestin2 (+GRK2) BRET biosensor, vs CP55,940 100 nM (EC75-80), read-out: CB1 wt βarr2 IC50
T1 construct: expressed in transfected cells; host or cells: HEK293
T1 sequence (P21554 whole entry): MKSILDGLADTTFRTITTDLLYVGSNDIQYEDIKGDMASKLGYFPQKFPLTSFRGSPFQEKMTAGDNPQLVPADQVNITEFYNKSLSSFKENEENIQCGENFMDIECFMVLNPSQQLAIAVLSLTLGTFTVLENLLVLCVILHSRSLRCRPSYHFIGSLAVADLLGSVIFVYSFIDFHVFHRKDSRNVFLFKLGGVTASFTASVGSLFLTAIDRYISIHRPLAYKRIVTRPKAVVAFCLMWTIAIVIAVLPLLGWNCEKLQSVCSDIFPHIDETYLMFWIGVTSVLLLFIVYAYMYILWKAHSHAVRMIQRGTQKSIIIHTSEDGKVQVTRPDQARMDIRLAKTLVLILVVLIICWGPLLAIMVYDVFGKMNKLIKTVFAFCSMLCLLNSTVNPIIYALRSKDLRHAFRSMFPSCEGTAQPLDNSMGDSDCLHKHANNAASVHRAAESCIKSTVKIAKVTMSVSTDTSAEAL
How it was run: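 HEK293 cells co-transfected with hCB1 and β-arrestin2 PM-translocation BRET biosensor (+GRK2); 48 h post-transfection in HBSS, test compound (0–600 nM, 12 points) added 3–5 min before CP55,940 at 100 nM (EC75-80). Overnight incubation at 37 °C; BRET (515/400 nm) read after 2 µM e-coelenterazine Prolume Purple, standardized to controls.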

[2] = biological target: T1, human CB1 receptor; test: bioSensAll GAPL-Gi2 BRET biosensor assay in HEK293 cells transfected with hCB1; test compound added before EC75-80 of agonist CP55,940 (0.1 nM); format: cell-based; details: vs CP55,940 0.1 nM (EC75-80), read-out: CB1 wt Gi2 IC50
How it was run: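 Test compounds at 12 doses up to 600 nM preceded a 0.1 nM CP55,940 challenge in hCB1/GAPL-Gi2 HEK293 cells. After overnight 37° C incubation, methoxy e-coelenterazine (2 µM final) was added and the 515/400 nm BRET ratio normalized to positive and negative controls.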

SMILES	IC50 [1]	IC50 [2]
C[C@@H](O)CN(C)c1nc(N2CCC(C)(C(N)=O)CC2)c2nc(-c3ccccc3Cl)n(-c3ccc(Cl)cc3)c2n1 [Compound 54, 1-[8-(2-chlorophenyl)-9-(4-chlorophenyl)-2-[[(2R)-2-hydroxypropyl]-methyl-amino]purin-6-yl]-4-methyl-piperidine-4-carboxamide]	1.12 nM	0.427 nM
C[C@H](O)CN(C)c1nc(N2CCC(C)(C(N)=O)CC2)c2nc(-c3ccccc3Cl)n(-c3ccc(Cl)cc3)c2n1 [Compound 55, 1-[8-(2-chlorophenyl)-9-(4-chlorophenyl)-2-[[(2S)-2-hydroxypropyl]-methyl-amino]purin-6-yl]-4-methyl-piperidine-4-carboxamide]	4.58 nM	0.647 nM
CC1(C(N)=O)CCN(c2nc(NCCO)nc3c2nc(-c2ccccc2Cl)n3-c2ccc(Cl)cc2)CC1 [Compound 56, 1-[8-(2-chlorophenyl)-9-(4-chlorophenyl)-2-(2-hydroxyethylamino)purin-6-yl]-4-methyl-piperidine-4-carboxamide]	5.41 nM	0.83 nM
Cc1cn(C)c(-c2nc3c(N4CCC(C)(C(N)=O)CC4)nc(N(C)CCO)nc3n2-c2ccc(Cl)cc2)n1 [Compound 57, 1-[9-(4-chlorophenyl)-8-(1,4-dimethylimidazol-2-yl)-2-[2-hydroxyethyl(methyl)amino]purin-6-yl]-4-methyl-piperidine-4-carboxamide]	121 nM	41.2 nM
CN(CCO)c1nc(N2CCC(C)(C(N)=O)CC2)c2nc(-c3cncn3C)n(-c3ccc(Cl)cc3)c2n1 [Compound 58, 1-[9-(4-chlorophenyl)-2-[2-hydroxyethyl(methyl)amino]-8-(3-methylimidazol-4-yl)purin-6-yl]-4-methyl-piperidine-4-carboxamide]	515 nM	6.91 nM
CC(C)n1cncc1-c1nc2c(N3CCC(C)(C(N)=O)CC3)nc(N(C)CCO)nc2n1-c1ccc(Cl)cc1 [Compound 59, 1-[9-(4-chlorophenyl)-2-[2-hydroxyethyl(methyl)amino]-8-(3-isopropylimidazol-4-yl)purin-6-yl]-4-methyl-piperidine-4-carboxamide]	> 5000 nM	> 5000 nM
CC(C)(C)OC(=O)NCCOc1nc(N2CCC(C)(C(N)=O)CC2)c2nc(-c3ccccc3Cl)n(-c3ccc(Cl)cc3)c2n1 [Compound 60, tert-butyl N-[2-[6-(4-carbamoyl-4-methyl-1-piperidyl)-8-(2-chlorophenyl)-9-(4-chlorophenyl)purin-2-yl]oxyethyl]carbamate]	19.3 nM	6.96 nM
CC1(C(N)=O)CCN(c2nc(OCCNS(C)(=O)=O)nc3c2nc(-c2ccccc2Cl)n3-c2ccc(Cl)cc2)CC1 [Compound 61, 1-[8-(2-chlorophenyl)-9-(4-chlorophenyl)-2-[2-(methanesulfonamido)ethoxy]purin-6-yl]-4-methyl-piperidine-4-carboxamide]	16.7 nM	0.645 nM
FC(F)(F)C1CCN(c2nc(OCCNCc3ccccc3)nc3c2nc(-c2ccccc2Cl)n3-c2ccc(Cl)cc2)CC1 [Compound 62, N-benzyl-2-[8-(2-chlorophenyl)-9-(4-chlorophenyl)-6-[4-(trifluoromethyl)-1-piperidyl]purin-2-yl]oxy-ethanamine]	7.62 nM	6.14 nM
CN(CCO)c1nc(N2CCC(C)(C(N)=O)CC2)c2nc(-c3ccccn3)n(-c3ccc(Cl)cc3)c2n1 [Compound 63, 1-[9-(4-chlorophenyl)-2-[2-hydroxyethyl(methyl)amino]-8-(2-pyridyl)purin-6-yl]-4-methyl-piperidine-4-carboxamide]	65.1 nM	9.9 nM
CN(CCO)c1nc(N2CCC(C)(C(N)=O)CC2)c2nc(-c3ccc(C#N)cn3)n(-c3ccc(Cl)cc3)c2n1 [Compound 64, 1-[9-(4-chlorophenyl)-8-(5-cyano-2-pyridyl)-2-[2-hydroxyethyl(methyl)amino]purin-6-yl]-4-methyl-piperidine-4-carboxamide]	27.9 nM	2.45 nM
CN(CCO)c1nc(N2CCC(C)(C(N)=O)CC2)c2nc(-c3ccc(C#N)nc3)n(-c3ccc(Cl)cc3)c2n1 [Compound 65, 1-[9-(4-chlorophenyl)-8-(6-cyano-3-pyridyl)-2-[2-hydroxyethyl(methyl)amino]purin-6-yl]-4-methyl-piperidine-4-carboxamide]	1.7 nM	0.534 nM
C[C@@H](CO)N(C)c1nc(N2CCC(C)(C(N)=O)CC2)c2nc(-c3ccccc3Cl)n(-c3ccc(Cl)cc3)c2n1 [Compound 66, 1-[8-(2-chlorophenyl)-9-(4-chlorophenyl)-2-[[(1S)-2-hydroxy-1-methyl-ethyl]-methyl-amino]purin-6-yl]-4-methyl-piperidine-4-carboxamide]	1.45 nM	0.586 nM
C[C@H](CO)N(C)c1nc(N2CCC(C)(C(N)=O)CC2)c2nc(-c3ccccc3Cl)n(-c3ccc(Cl)cc3)c2n1 [Compound 67, 1-[8-(2-chlorophenyl)-9-(4-chlorophenyl)-2-[[(1R)-2-hydroxy-1-methyl-ethyl]-methyl-amino]purin-6-yl]-4-methyl-piperidine-4-carboxamide]	4.38 nM	1.27 nM
CC1(C(N)=O)CCN(c2nc(S(C)(=O)=O)nc3c2nc(-c2ccccc2Cl)n3-c2ccc(Cl)cc2)CC1 [Compound 68, 1-[8-(2-chlorophenyl)-9-(4-chlorophenyl)-2-methylsulfonyl-purin-6-yl]-4-methyl-piperidine-4-carboxamide]	10.7 nM	1.69 nM
CCOC(=O)c1cn(-c2nc(N3CCC(C)(C(N)=O)CC3)c3nc(-c4ccccc4Cl)n(-c4ccc(Cl)cc4)c3n2)cn1 [Compound 69, ethyl 1-[6-(4-carbamoyl-4-methyl-1-piperidyl)-8-(2-chlorophenyl)-9-(4-chlorophenyl)purin-2-yl]imidazole-4-carboxylate]	117 nM	41.9 nM
CN(CCO)c1nc(N2CC(C(N)=O)C2)c2nc(-c3ccccc3Cl)n(-c3ccc(Cl)cc3)c2n1 [Compound 72]	3.81 nM	1.1 nM
CN(CCO)c1nc(N2CC(C)(C(N)=O)C2)c2nc(-c3ccccc3Cl)n(-c3ccc(Cl)cc3)c2n1 [Compound 73]	1.77 nM	0.556 nM
CN(CCO)c1nc(N2CC(C)(O)C2)c2nc(-c3ccccc3Cl)n(-c3ccc(Cl)cc3)c2n1 [Compound 74]	3.02 nM	0.574 nM
CN(CCO)c1nc(N2CC(C)(C#N)C2)c2nc(-c3ccccc3Cl)n(-c3ccc(Cl)cc3)c2n1 [Compound 75]	0.834 nM	0.399 nM
COC1(C)CN(c2nc(N(C)CCO)nc3c2nc(-c2ccccc2Cl)n3-c2ccc(Cl)cc2)C1 [Compound 76]	1.18 nM	0.51 nM
CC1(C(N)=O)CCN(c2nc(C(=O)O)nc3c2nc(-c2ccccc2Cl)n3-c2ccc(Cl)cc2)CC1 [Compound 77, 6-(4-carbamoyl-4-methyl-1-piperidyl)-8-(2-chlorophenyl)-9-(4-chlorophenyl)purine-2-carboxylic acid]	> 5000 nM	> 5000 nM
CC1(C(N)=O)CCN(c2nc(OCCO)nc3c2nc(-c2ccccc2Cl)n3-c2ccc(Cl)cc2)CC1 [Compound 78, 1-[8-(2-chlorophenyl)-9-(4-chlorophenyl)-2-(2-hydroxyethoxy)purin-6-yl]-4-methyl-piperidine-4-carboxamide]	5.68 nM	0.995 nM
C[C@@H](O)COc1nc(N2CCC(C)(C(N)=O)CC2)c2nc(-c3ccccc3Cl)n(-c3ccc(Cl)cc3)c2n1 [Compound 79, 1-[8-(2-chlorophenyl)-9-(4-chlorophenyl)-2-[(2R)-2-hydroxypropoxy]purin-6-yl]-4-methyl-piperidine-4-carboxamide]	4.37 nM	0.868 nM
C[C@H](O)COc1nc(N2CCC(C)(C(N)=O)CC2)c2nc(-c3ccccc3Cl)n(-c3ccc(Cl)cc3)c2n1 [Compound 80, 1-[8-(2-chlorophenyl)-9-(4-chlorophenyl)-2-[(2S)-2-hydroxypropoxy]purin-6-yl]-4-methyl-pi-peridine-4-carboxamide]	5.09 nM	1.02 nM
C[C@H](CO)Oc1nc(N2CCC(C)(C(N)=O)CC2)c2nc(-c3ccccc3Cl)n(-c3ccc(Cl)cc3)c2n1 [Compound 81, 1-[8-(2-chlorophenyl)-9-(4-chlorophenyl)-2-[(1R)-2-hydroxy-1-methyl-ethoxy]purin-6-yl]-4-methyl-piperidine-4-carboxamide]	4.9 nM	0.896 nM
C[C@@H](CO)Oc1nc(N2CCC(C)(C(N)=O)CC2)c2nc(-c3ccccc3Cl)n(-c3ccc(Cl)cc3)c2n1 [Compound 82, 1-[8-(2-chlorophenyl)-9-(4-chlorophenyl)-2-[(1S)-2-hydroxy-1-methyl-ethoxy]purin-6-yl]-4-methyl-piperidine-4-carboxamide]	4.49 nM	0.753 nM
C[C@@H](O)CNc1nc(N2CCC(C)(C(N)=O)CC2)c2nc(-c3ccccc3Cl)n(-c3ccc(Cl)cc3)c2n1 [Compound 83, 1-[8-(2-chlorophenyl)-9-(4-chlorophenyl)-2-[[(2R)-2-hydroxypropyl]amino]purin-6-yl]-4-methyl-piperidine-4-carboxamide]	6.26 nM	1.16 nM
C[C@H](O)CNc1nc(N2CCC(C)(C(N)=O)CC2)c2nc(-c3ccccc3Cl)n(-c3ccc(Cl)cc3)c2n1 [Compound 84, 1-[8-(2-chlorophenyl)-9-(4-chlorophenyl)-2-[[(2S)-2-hydroxypropyl]amino]purin-6-yl]-4-methyl-piperidine-4-carboxamide]	11.7 nM	2.1 nM
